Target: MAGL (Homo sapiens (Human), UniProt Q99685)
Test: In vitro competitive activity-based protein profiling (human prefrontal cortex membrane fractions, FP-Rh probe), MAGL band
Details: read-out: MAGL IC50 (μM) (human); human prefrontal cortex membrane fractions

MAGL, sequence (Q99685 whole entry): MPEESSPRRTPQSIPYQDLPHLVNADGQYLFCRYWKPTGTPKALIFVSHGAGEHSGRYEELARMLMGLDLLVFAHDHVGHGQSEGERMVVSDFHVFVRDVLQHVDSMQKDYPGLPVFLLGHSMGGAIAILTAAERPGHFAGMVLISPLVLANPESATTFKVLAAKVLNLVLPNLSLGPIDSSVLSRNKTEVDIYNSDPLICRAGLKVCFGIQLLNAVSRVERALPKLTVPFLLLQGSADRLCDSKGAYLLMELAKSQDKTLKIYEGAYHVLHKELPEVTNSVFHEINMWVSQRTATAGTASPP

IC50 [µM]	Compound
< 0.1	O=C(O)c1ccn(C(=O)N2CCN(Cc3cccc(Oc4ccccc4Cl)c3)CC2)n1 [Example 85, 1-(4-(3-(2-chlorophenoxy)-benzyl)piperazine-1-carbonyl)-1H-pyrazole-3-carboxylic acid]
< 0.1	O=C(O)c1ccn(C(=O)N2CCN(Cc3cccc(Oc4ccc(Cl)cc4)c3)CC2)n1 [Example 98, 1-(4-(3-(4-chlorophenoxy)-benzyl)-piperazine-1-carbonyl)-1H-pyrazole-3-carboxylic acid]
< 0.1	NC(=O)c1ccn(C(=O)N2CCC3(CCN(Cc4cccc(C(F)(F)F)c4)C3)C2)n1 (stereo not drawn) [Example 429, 1-(7-(3-(trifluoromethyl)-benzyl)-2,7-diazaspiro[4.4]-nonane-2-carbonyl)-1H-pyrazole-3-carboxamide]
< 0.1	CN(Cc1cc(Cl)ccc1C(F)(F)F)C1CCN(C(=O)n2ccc(C(=O)O)n2)CC1 [Example 81, 1-(4-((5-chloro-2-(trifluoromethyl)-benzyl)-(methyl)amino)-piperidine-1-carbonyl)-1H-pyrazole-3-carboxylic acid]
< 0.1	O=C(O)c1ccn(C(=O)N2CCC3(CCCN3Cc3ccc(C(F)(F)F)cc3N3CCCC3)CC2)n1 [Example 93, 1-(1-(2-(pyrrolidin-1-yl)-4-(trifluoromethyl)-benzyl)-1,8-diazaspiro[4.5]-decane-8-carbonyl)-1H-pyrazole-3-carboxylic acid]
< 0.1	O=C(O)c1ccn(C(=O)N2CCC(OCc3cc(N4CCCC4)cc(C(F)(F)F)c3)CC2)n1 [Example 331, 1-(4-((3-(pyrrolidin-1-yl)-5-(trifluoromethyl)-benzyl)-oxy)piperidine-1-carbonyl)-1H-pyrazole-3-carboxylic acid]
< 0.1	CNC(=O)c1ccn(C(=O)N2CC3CN(Cc4cc(Cl)ccc4Cl)CC3C2)n1 (stereo not drawn) [Example 430, 1-(5-(2,5-dichlorobenzyl)-octahydropyrrolo-[3,4-c]pyrrole-2-carbonyl)-N-methyl-1H-pyrazole-3-carboxamide]
< 0.1	Cc1c(CO[C@H]2C[C@@H]3CN(C(=O)n4cc(Cl)c(C(=O)O)n4)C[C@@H]3C2)cccc1C(F)(F)F [Example 341, 4-chloro-1-(trans-5-((2-methyl-3-(trifluoromethyl)-benzyl)oxy)-octahydrocyclopenta-[c]pyrrole-2-carbonyl)-1H-pyrazole-3-carboxylic acid]
< 0.1	O=C(O)c1ccn(C(=O)N2CCC3(CCN(Cc4cccc(-c5ccccc5)c4Cl)C3)CC2)n1 [Example 358, 1-(2-((2-chloro-[1,1′-biphenyl]-3-yl)methyl)-2,8-diazaspiro[4.5]-decane-8-carbonyl)-1H-pyrazole-3-carboxylic acid]
< 0.1	O=C(O)c1ccn(C(=O)N2CCC3(CCN(Cc4cc(Cl)ccc4C(F)(F)F)C3)CC2)n1 [Example 43, 1-(2-(5-chloro-2-(trifluoromethyl)-benzyl)-2,8-diazaspiro[4.5]-decane-8-carbonyl)-1H-pyrazole-3-carboxylic acid]
< 0.1	CNC(=O)c1ccn(C(=O)N2C[C@H]3C[C@@H](N(C)Cc4ccccc4C(F)(F)F)C[C@H]3C2)n1 [Example 434, N-methyl-1-(cis-5-(methyl(2-(trifluoromethyl)-benzyl)amino)-octahydrocyclopenta-[c]pyrrole-2-carbonyl)-1H-pyrazole-3-carboxamide]
< 0.1	O=C(O)c1ccn(C(=O)N2CCC(OCc3cc(Cl)cc(Oc4ccc(Cl)cc4)c3)CC2)n1 [Example 27, 1-(4-((3-Chloro-5-(4-chlorophenoxy)benzyl)oxy)piperidine-1-carbonyl)-1H-pyrazole-3-carboxylic Acid]
< 0.1	O=C(O)c1nn(C(=O)N2CCC3(CCN(Cc4cc(Cl)ccc4C(F)(F)F)C3)CC2)cc1Cl [Example 133, 4-chloro-1-(2-(5-chloro-2-(trifluoromethyl)-benzyl)-2,8-diazaspiro[4.5]-decane-8-carbonyl)-1H-pyrazole-3-carboxylic acid]
< 0.1	O=C(O)c1ccn(C(=O)N2CCC3(CCN(Cc4cc(Cl)ccc4C(F)(F)F)CC3)CC2)n1 [Example 217, 1-(9-(5-chloro-2-(trifluoromethyl)-benzyl)-3,9-diazaspiro[5.5]-undecane-3-carbonyl)-1H-pyrazole-3-carboxylic acid]
< 0.1	O=C(O)c1nn(C(=O)N2CCN(Cc3ccc(C(F)(F)F)cc3N3CCCC3)CC2)cc1Cl [Example 443, 4-chloro-1-(4-(2-(pyrrolidin-1-yl)-4-(trifluoromethyl)-benzyl)-piperazine-1-carbonyl)-1H-pyrazole-3-carboxylic acid]
< 0.1	Cc1ccc(Oc2cccc(CN3CCN(C(=O)n4ccc(C(=O)O)n4)CC3)c2)cc1 [Example 251, 1-(4-(3-(p-tolyloxy)benzyl)-piperazine-1-carbonyl)-1H-pyrazole-3-carboxylic acid]
< 0.1	C[C@@H]1CN(Cc2cccc(Oc3cc(C(F)(F)F)ccn3)c2)CCN1C(=O)n1ccc(C(=O)O)n1 [Example 374, (R)-1-(2-methyl-4-(3-((4-(trifluoromethyl)-pyridin-2-yl)oxy)benzyl)-piperazine-1-carbonyl)-1H-pyrazole-3-carboxylic acid]
< 0.1	O=C(O)c1ccn(C(=O)N2C[C@H]3C[C@H](Oc4cccc(C(F)(F)F)c4)C[C@H]3C2)n1 [Example 231, 1-(trans-5-(3-(trifluoromethyl)-phenoxy)-octahydrocyclopenta-[c]pyrrole-2-carbonyl)-1H-pyrazole-3-carboxylic acid]
< 0.1	CN(Cc1cc(Cl)ccc1C(F)(F)F)CC1CCN(C(=O)n2ccc(C(=O)O)n2)CC1 [Example 209, 1-(4-(((5-chloro-2-(trifluoromethyl)-benzyl)-(methyl)amino)-methyl)piperidine-1-carbonyl)-1H-pyrazole-3-carboxylic acid]
< 0.1	C[C@H]1CN(Cc2cc(Cl)cc(C(F)(F)F)c2)CCN1C(=O)n1ccc(C(N)=O)n1 [Example 271, (S)-1-(4-(3-chloro-5-(trifluoromethyl)-benzyl)-2-methylpiperazine-1-carbonyl)-1H-pyrazole-3-carboxamide]
< 0.1	O=C(O)c1nn(C(=O)N2CCC3(CCN(Cc4cc(Cl)cc(C(F)(F)F)c4)C3)CC2)cc1Cl [Example 388, 4-chloro-1-(2-(3-chloro-5-(trifluoromethyl)-benzyl)-2,8-diazaspiro-[4.5]decane-8-carbonyl)-1H-pyrazole-3-carboxylic acid]
< 0.1	C[C@H]1CN(Cc2cccc(Oc3ccc(Cl)cc3)c2)CCN1C(=O)n1ccc(C(=O)O)n1 [Example 311, (S)-1-(4-(3-(4-chlorophenoxy)-benzyl)-2-methylpiperazine-1-carbonyl)-1H-pyrazole-3-carboxylic acid]
< 0.1	CN(Cc1ccc(C(F)(F)F)c(N2CCCC2)c1)C1(C)CCN(C(=O)n2ccc(C(=O)O)n2)CC1 [Example 385, 1-(4-methyl-4-(methyl(3-(pyrrolidin-1-yl)-4-(trifluoromethyl)-benzyl)amino)-piperidine-1-carbonyl)-1H-pyrazole-3-carboxylic acid]
< 0.1	C[C@@H]1CN(Cc2ccc(Cl)c(-c3nccs3)c2)CCN1C(=O)n1ccc(C(=O)O)n1 [Example 299, (R)-1-(4-(4-chloro-3-(thiazol-2-yl)benzyl)-2-methylpiperazine-1-carbonyl)-1H-pyrazole-3-carboxylic acid]
